Literature values as cited in patent US20060182729A1, “Combat/training antioxidant micronutrient formulation and method of administration” (priority 2005, published 2006).

Tests used:
[1] = system: mutagens in the small intestine; details: supplementation
[2] = oral supplementation, human subjects

Structure (SMILES)	formation of mutagens in the small intestine [1]	plasma levels of glutathione [2]
O=C1O[C@H]([C@@H](O)CO)C(O)=C1O [vitamin C, ascorbic acid]	reduces	
N[C@@H](CCC(=O)N[C@@H](CS)C(=O)NCC(=O)O)C(=O)O [glutathione]		failed to significantly increase
